Reference: patent US10899709B2, “Novel-alkynyl-substituted 3-phenylpyrrolidine-2,4-diones and use thereof as herbicides” (BAYER CROPSCIENCE AKTIENGESELLSCHAFT, priority 2015, dated 2021)

Assays:
Type in all cases: in vivo
Echinochloa crus-galli [1] = assay: Pre-emergence herbicidal effect; conditions: visual score after 3 weeks
Description: (§1) Seeds of monocotyledonous and dicotyledonous weed plants and crop plants are laid out in wood-fibre pots in sandy loam and covered with soil. The compounds according to the invention formulated in the form of wettable powders (WP) or as emulsion concentrates (EC) are then applied as aqueous suspension or emulsion at a water application rate of 600 to 800 l/ha (converted) with the addition of 0.2% wetting agent to the surface of the covering soil. After the treatment, the pots are placed in a greenhouse and kept under good growth conditions for the trial plants. The damage to the test plants is scored visually after a test period of 3 weeks by comparison with untreated controls (herbicidal activity in percent (%): 100% activity=the plants have died, 0% activity=like control plants).

Alopecurus myosuroides [2] = assay: Pre-emergence herbicidal effect; conditions: visual score after 3 weeks
Description: as §1

Lolium multiflorum [3] = assay: Pre-emergence herbicidal effect; conditions: visual score after 3 weeks
Description: as §1

Veronica persica = assay: Pre-emergence herbicidal effect; conditions: 320 g/ha, visual score after 3 weeks
Description: as §1

Avena fatua [4] = assay: Pre-emergence herbicidal effect; conditions: for Pre-emergence effectiveness AVEFA: visual score after 3 weeks
Description: as §1

Cyperus esculentus = assay: Pre-emergence herbicidal effect; conditions: for Pre-emergence effectiveness CYPES: visual score after 3 weeks
Description: as §1

Setaria viridis [5] = assay: Pre-emergence herbicidal effect; conditions: for Pre-emergence effectiveness SETVI: visual score after 3 weeks
Description: as §1

Echinochloa crus-galli [6] = assay: Post-emergence herbicidal effect; conditions: visual assessment after about 3 weeks
Procedure: (§2) Seeds of monocotyledonous and dicotyledonous weed and crop plants are laid out in sandy loam in wood-fibre pots, covered with soil and cultivated in a greenhouse under good growth conditions. 2 to 3 weeks after sowing, the test plants are treated at the one-leaf stage. The compounds according to the invention, formulated in the form of wettable powders (WP) or as emulsion concentrates (EC), are then sprayed as aqueous suspension or emulsion at a water application rate of 600 to 800 l/ha (converted) with the addition of 0.2% of wetting agent onto the green parts of the plants. After the test plants have been left to stand in the greenhouse under optimal growth conditions for about 3 weeks, the action of the preparations is assessed visually in comparison to untreated controls (herbicidal action in percent (%): 100% activity=the plants have died, 0% activity=like control plants).

Alopecurus myosuroides [7] = assay: Post-emergence herbicidal effect; conditions: for Post-emergence effectiveness ALOMY: visual assessment after about 3 weeks; for Comparison data for post-emergence effect ALOMY: 20 g a.i./ha
Procedure: as §2

Lolium multiflorum [8] = assay: Post-emergence herbicidal effect; conditions: visual assessment after about 3 weeks
Procedure: as §2

Avena fatua [9] = assay: Post-emergence herbicidal effect; conditions: for Post-emergence effectiveness AVEFA: visual assessment after about 3 weeks; for Comparison data for post-emergence effect AVEFA: 20 g a.i./ha
Procedure: as §2

Setaria viridis [10] = assay: Post-emergence herbicidal effect; conditions: visual assessment after about 3 weeks
Procedure: as §2

PHBPU = assay: Post-emergence herbicidal effect; conditions: 20 g a.i./ha
Procedure: as §2

Amaranthus retroflexus = assay: Pre-emergence herbicidal effect; conditions: 320 g/ha, visual score after 3 weeks
Description: as §1

Viola tricolor = assay: Pre-emergence herbicidal effect; conditions: 320 g/ha, visual score after 3 weeks
Description: as §1

Compound | Pre-emergence effectiveness ECHCG (Echinochloa crus-galli [1]; 80 g/ha) [%] | Pre-emergence effectiveness ECHCG (Echinochloa crus-galli [1]; 320 g/ha) [%] | Pre-emergence effectiveness ALOMY (Alopecurus myosuroides [2]; 80 g/ha) [%] | Pre-emergence effectiveness ALOMY (Alopecurus myosuroides [2]; 320 g/ha) [%] | Pre-emergence effectiveness LOLMU (Lolium multiflorum [3]; 80 g/ha) [%] | Pre-emergence effectiveness LOLMU (Lolium multiflorum [3]; 320 g/ha) [%] | Pre-emergence effectiveness VERPE (Veronica persica) [%] | Pre-emergence effectiveness AVEFA (Avena fatua [4]; 80 g/ha) [%] | Pre-emergence effectiveness AVEFA (Avena fatua [4]; 320 g/ha) [%] | Pre-emergence effectiveness CYPES (Cyperus esculentus; 320 g/ha) [%] | Pre-emergence effectiveness SETVI (Setaria viridis [5]; 80 g/ha) [%] | Pre-emergence effectiveness SETVI (Setaria viridis [5]; 320 g/ha) [%] | Post-emergence effectiveness ECHCG (Echinochloa crus-galli [6]; 20 g/ha) [%] | Post-emergence effectiveness ECHCG (Echinochloa crus-galli [6]; 80 g/ha) [%] | Post-emergence effectiveness ALOMY (Alopecurus myosuroides [7]; 20 g/ha) [%] | Post-emergence effectiveness ALOMY (Alopecurus myosuroides [7]; 80 g/ha) [%] | Post-emergence effectiveness LOLMU (Lolium multiflorum [8]; 20 g/ha) [%] | Post-emergence effectiveness LOLMU (Lolium multiflorum [8]; 80 g/ha) [%] | Post-emergence effectiveness AVEFA (Avena fatua [9]; 80 g/ha) [%] | Post-emergence effectiveness SETVI (Setaria viridis [10]; 80 g/ha) [%] | other results
CC#Cc1cc(C)c(C2=C(O)C3(CCC(CCOC)CC3)NC2=O)c(CC)c1 (stereo not drawn) [Example I-2] | 100 | 100 | 100 | 100 | 100 | 100 | 100 | 80 | 100 | 100 | 100 | 100 | 100 | 100 | 90 | 100 | 90 | 100 | 100 | 100 | Post-emergence effectiveness AVEFA (Avena fatua [9]; 20 g/ha): 90%; Post-emergence effectiveness SETVI (Setaria viridis [10]; 20 g/ha): 100%
CC#Cc1cc(C)c(C2=C(O)C3(CCC(COC)CC3)NC2=O)c(CC)c1 (stereo not drawn) [Example I-5] | 100 | 100 | 100 | 100 | 100 | 100 | 80 | 100 | 100 | 100 | 100 | 100 | 100 | 100 | 90 | 100 | 90 | 100 | 100 | 100 | Comparison data for post-emergence effect ALOMY (Alopecurus myosuroides [7]): 90%; Comparison data for post-emergence effect PHBPU (PHBPU): 30%; Comparison data for post-emergence effect AVEFA (Avena fatua [9]): 90%; Post-emergence effectiveness AVEFA (Avena fatua [9]; 20 g/ha): 90%; Post-emergence effectiveness SETVI (Setaria viridis [10]; 20 g/ha): 90%
COCC1CCC2(CC1)NC(=O)C(c1c(C)cc(C#CC3CC3)cc1C)=C2O (stereo not drawn) [Example I-8] | 100 | 100 | 90 | 100 | 90 | 100 | 90 | – | – | – | 80 | 90 | 100 | 100 | 90 | 100 | 90 | 90 | 80 | 100 | Post-emergence effectiveness SETVI (Setaria viridis [10]; 20 g/ha): 100%
CCc1cc(C#CC2CC2)cc(C)c1C1=C(O)C2(CCC(COC)C2)NC1=O (stereo not drawn) [Example I-11] | 100 | 100 | 100 | 100 | 100 | 100 | 80 | – | 80 | 100 | 90 | 100 | 100 | 100 | 80 | 100 | 90 | 100 | 100 | 100 | Post-emergence effectiveness AVEFA (Avena fatua [9]; 20 g/ha): 80%; Post-emergence effectiveness SETVI (Setaria viridis [10]; 20 g/ha): 100%
CCOC(=O)OC1=C(c2c(C)cc(C#CC3CC3)cc2CC)C(=O)N[C@]12CC[C@H](COC)C2 [Example Ia-1] | 100 | 100 | 90 | 100 | 100 | 100 | 90 | 80 | 90 | – | 100 | 100 | 90 | 100 | – | 80 | – | – | – | 90 | –
CC#Cc1cc(CC)c(C2=C(OC(=O)C(C)C)C3(CCC(CCOC)CC3)NC2=O)c(CC)c1 (stereo not drawn) [Example Ia-5] | 100 | 100 | 100 | 100 | 100 | 100 | 100 | 80 | 100 | 100 | 100 | 100 | – | – | – | – | – | – | – | – | Pre-emergence effectiveness AMARE (Amaranthus retroflexus): 100%; Pre-emergence effectiveness CYPES (Cyperus esculentus; 80 g/ha): 100%
CC#Cc1cc(C)c(C2=C(OC(=O)C(C)C)C3(CCC(CCOC)CC3)NC2=O)c(CC)c1 (stereo not drawn) [Ia-4] | 100 | 100 | – | 80 | – | 90 | 90 | – | – | – | 100 | 100 | – | – | – | – | – | – | – | – | Pre-emergence effectiveness VIOTR (Viola tricolor): 100%
CC#Cc1cc(C)c(C2=C(OC(=O)OCC)C3(CCC(OC)CC3)NC2=O)c(CC)c1 (stereo not drawn) [WO 2015/040114, reference compound] | – | – | – | – | – | – | – | – | – | – | – | – | – | – | – | – | – | – | – | – | Comparison data for pre-emergence effectiveness AVEFA (Avena fatua [4]; 20 g a.i./ha): 50%; Comparison data for pre-emergence effectiveness CYPES (Cyperus esculentus; 20 g a.i./ha): 0%; Comparison data for pre-emergence effectiveness SETVI (Setaria viridis [5]; 20 g a.i./ha): 80%; Comparison data for post-emergence effect ALOMY (Alopecurus myosuroides [7]): 80%; Comparison data for post-emergence effect PHBPU (PHBPU): 0%; Comparison data for post-emergence effect AVEFA (Avena fatua [9]): 70%
